Data set [1] in a line: Dissociation constant, pKa of the compound. It counts as physicochemical.
The target in data set [2] is T1, Gamma-aminobutyric acid receptor subunit alpha-5 (Homo sapiens, UniProt P31644).
T1 sequence (P31644 whole entry): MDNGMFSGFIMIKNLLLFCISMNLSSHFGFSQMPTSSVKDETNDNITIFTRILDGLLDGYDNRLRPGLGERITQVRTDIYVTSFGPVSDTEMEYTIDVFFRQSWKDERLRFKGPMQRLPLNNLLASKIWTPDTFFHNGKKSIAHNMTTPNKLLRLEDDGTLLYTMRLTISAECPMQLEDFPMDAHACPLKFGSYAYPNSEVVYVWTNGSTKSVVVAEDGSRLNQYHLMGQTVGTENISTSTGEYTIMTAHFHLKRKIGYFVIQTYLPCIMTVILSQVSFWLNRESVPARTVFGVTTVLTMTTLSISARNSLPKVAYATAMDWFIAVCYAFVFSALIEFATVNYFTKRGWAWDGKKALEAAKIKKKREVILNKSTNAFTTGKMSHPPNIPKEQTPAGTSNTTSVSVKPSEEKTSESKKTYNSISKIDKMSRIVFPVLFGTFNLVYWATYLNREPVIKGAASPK
Nature of the data set: Binding affinity to GABAa alpha5 (unknown origin) assessed as inhibition constant.

Data set [3] can be described thus: Lipophilicity, logP of the compound. Particulars: octanol/water.
Data set [4] can be described thus: Lipophilicity, logD of compound at pH 7. The settings on record: buffer.
The nature of data set [5]: Drug distribution in rat brain assessed as dissociation constant. It counts as ADME, tissue-based.
Data set [6] in a line: Drug distribution in rat brain assessed as maximum binding. It counts as ADME, tissue-based. The settings on record: in vivo.
For data set [7], the target named is Neuronal acetylcholine receptor subunit alpha-7 (Rattus norvegicus, UniProt Q05941). Description: Binding affinity to rat nACh alpha7 receptor assessed as inhibition constant.
The target in data set [8] is Neuronal acetylcholine receptor subunit alpha-7 (Homo sapiens, UniProt P36544). Nature of the data set: Binding affinity to human nACh alpha7 receptor assessed as inhibition constant.
Data set [9] can be described thus: Stability in human plasma incubated upto 60 mins. It counts as ADME, cell-free. The settings on record: read-out: Stability.
Data set [10] deals with T2, Gamma-aminobutyric acid receptor subunit alpha-1 (Homo sapiens, UniProt P14867).
T2 sequence (P14867 whole entry): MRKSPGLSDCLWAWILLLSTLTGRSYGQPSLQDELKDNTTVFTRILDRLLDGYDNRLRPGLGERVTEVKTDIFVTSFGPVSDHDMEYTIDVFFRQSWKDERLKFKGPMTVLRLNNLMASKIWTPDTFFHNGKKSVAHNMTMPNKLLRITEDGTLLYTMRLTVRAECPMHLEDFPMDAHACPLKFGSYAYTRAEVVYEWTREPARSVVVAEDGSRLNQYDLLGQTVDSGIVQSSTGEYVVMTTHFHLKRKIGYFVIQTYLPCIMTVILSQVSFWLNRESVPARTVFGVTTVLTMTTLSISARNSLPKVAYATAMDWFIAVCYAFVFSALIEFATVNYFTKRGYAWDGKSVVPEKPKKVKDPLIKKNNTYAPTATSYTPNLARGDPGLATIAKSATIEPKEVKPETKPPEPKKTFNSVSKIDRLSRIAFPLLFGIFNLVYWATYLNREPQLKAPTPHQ
Description: Binding affinity to GABAa alpha1 (unknown origin) assessed as inhibition constant.

The target in data set [11] is T3, Gamma-aminobutyric acid receptor subunit alpha-2 (Homo sapiens, UniProt P47869).
T3 sequence (P47869 whole entry): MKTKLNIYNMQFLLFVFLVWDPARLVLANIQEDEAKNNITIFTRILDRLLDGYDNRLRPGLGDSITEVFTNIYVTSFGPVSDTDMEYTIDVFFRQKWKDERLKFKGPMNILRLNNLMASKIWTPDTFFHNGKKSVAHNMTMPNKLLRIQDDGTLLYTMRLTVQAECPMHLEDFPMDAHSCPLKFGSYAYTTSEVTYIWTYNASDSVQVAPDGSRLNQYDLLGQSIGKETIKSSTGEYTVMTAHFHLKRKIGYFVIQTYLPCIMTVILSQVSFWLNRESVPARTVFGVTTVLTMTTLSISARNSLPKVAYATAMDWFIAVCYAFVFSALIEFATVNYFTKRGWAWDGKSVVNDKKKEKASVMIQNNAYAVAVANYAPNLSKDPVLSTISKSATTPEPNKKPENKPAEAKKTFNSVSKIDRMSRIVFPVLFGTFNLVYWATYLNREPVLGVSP
Description: Binding affinity to GABAa alpha2 (unknown origin) assessed as inhibition constant.

Data set [12] concerns the target T4, Gamma-aminobutyric acid receptor subunit alpha-3 (Homo sapiens, UniProt P34903).
T4 sequence (P34903 whole entry): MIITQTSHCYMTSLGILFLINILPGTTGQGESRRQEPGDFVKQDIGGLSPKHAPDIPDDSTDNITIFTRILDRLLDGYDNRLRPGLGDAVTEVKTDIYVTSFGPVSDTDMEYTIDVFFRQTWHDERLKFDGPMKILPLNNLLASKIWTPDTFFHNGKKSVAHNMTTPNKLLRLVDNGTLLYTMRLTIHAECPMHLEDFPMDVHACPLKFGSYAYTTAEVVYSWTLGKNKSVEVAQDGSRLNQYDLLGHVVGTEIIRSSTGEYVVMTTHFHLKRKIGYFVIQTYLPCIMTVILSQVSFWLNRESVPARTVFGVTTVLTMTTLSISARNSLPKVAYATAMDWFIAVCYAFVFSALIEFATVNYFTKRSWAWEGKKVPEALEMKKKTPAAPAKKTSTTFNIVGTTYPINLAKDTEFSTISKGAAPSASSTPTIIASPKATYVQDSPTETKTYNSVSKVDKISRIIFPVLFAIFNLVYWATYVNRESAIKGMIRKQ
Nature of the data set: Binding affinity to GABAa alpha3 (unknown origin) assessed as inhibition constant.

Data set [13] can be described thus: Binding affinity to GABA/BZ receptor (unknown origin) assessed as inhibition constant. Details: species or system Homo sapiens.
For data set [14], the target named is T5, Alpha-2A adrenergic receptor (Homo sapiens, UniProt P08913).
T5 sequence (P08913 whole entry): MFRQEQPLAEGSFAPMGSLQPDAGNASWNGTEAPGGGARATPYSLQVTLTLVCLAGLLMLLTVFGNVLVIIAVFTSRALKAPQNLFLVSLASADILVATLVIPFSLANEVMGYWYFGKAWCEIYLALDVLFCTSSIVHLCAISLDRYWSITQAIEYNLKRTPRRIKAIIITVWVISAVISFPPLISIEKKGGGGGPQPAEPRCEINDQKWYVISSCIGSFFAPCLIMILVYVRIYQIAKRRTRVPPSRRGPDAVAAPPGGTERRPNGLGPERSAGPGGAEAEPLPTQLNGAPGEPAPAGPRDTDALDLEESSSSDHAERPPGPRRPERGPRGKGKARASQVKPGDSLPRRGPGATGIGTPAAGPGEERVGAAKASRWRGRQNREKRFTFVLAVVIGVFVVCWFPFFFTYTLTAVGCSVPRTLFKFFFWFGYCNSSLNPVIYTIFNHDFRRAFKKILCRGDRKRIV
Description: Binding affinity to alpha2A receptor (unknown origin).

The target of data set [15] is T6, Alpha-2C adrenergic receptor (Homo sapiens, UniProt P18825).
T6 sequence (P18825 whole entry): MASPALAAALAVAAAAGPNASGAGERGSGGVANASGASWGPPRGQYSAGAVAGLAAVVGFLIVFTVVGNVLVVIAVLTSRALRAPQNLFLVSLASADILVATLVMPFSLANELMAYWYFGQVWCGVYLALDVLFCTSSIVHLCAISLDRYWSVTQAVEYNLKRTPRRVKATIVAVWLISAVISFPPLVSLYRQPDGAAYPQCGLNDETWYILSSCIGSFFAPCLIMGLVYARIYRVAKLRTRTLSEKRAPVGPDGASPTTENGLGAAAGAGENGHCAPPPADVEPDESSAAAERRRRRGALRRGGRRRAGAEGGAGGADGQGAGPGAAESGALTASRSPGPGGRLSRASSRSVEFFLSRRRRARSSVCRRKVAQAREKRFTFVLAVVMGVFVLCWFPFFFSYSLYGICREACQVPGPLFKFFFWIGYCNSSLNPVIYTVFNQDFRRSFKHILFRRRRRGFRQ
Nature of the data set: Binding affinity to alpha2C receptor (unknown origin).

Data set [16] has as its target T7, Alpha-2B adrenergic receptor (Homo sapiens, UniProt P18089).
T7 sequence (P18089 whole entry): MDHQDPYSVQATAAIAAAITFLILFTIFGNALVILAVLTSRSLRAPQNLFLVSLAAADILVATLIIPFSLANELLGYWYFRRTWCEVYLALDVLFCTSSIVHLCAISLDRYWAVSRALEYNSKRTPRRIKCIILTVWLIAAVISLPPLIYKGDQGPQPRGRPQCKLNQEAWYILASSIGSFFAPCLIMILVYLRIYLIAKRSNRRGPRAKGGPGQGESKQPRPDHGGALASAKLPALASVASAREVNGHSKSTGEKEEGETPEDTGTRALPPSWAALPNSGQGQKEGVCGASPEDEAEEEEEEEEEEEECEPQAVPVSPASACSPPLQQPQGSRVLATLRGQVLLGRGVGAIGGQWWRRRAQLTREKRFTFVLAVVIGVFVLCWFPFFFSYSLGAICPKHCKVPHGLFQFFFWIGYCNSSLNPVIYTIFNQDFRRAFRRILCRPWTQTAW
Nature of the data set: Binding affinity to alpha2B receptor (unknown origin).

Data set [17] is described as follows: Drug distribution in Sprague-Dawley rat liver at 1 mg/kg, iv measured at 10 mins in presence of ETO. It counts as ADME, organism-based. The settings on record: in vivo.
Data set [18] in a line: Drug distribution in Sprague-Dawley rat adrenal gland at 1 mg/kg, iv measured at 10 mins in presence of ETO. It counts as ADME, organism-based. The settings on record: in vivo.
Data set [19] is described as follows: Stability in Sprague-Dawley rat plasma assessed as parent compound remaining measured after 10 mins. It counts as ADME, cell-free. Particulars: read-out: Stability.
Data set [20] is described as follows: Stability in Sprague-Dawley rat plasma assessed as parent compound remaining measured after 30 mins. Particulars: read-out: Stability. It counts as ADME, cell-free.
Data set [21] in a line: Stability in Sprague-Dawley rat plasma assessed as parent compound remaining measured after 60 mins. It counts as ADME, cell-free. Particulars: read-out: Stability.
Data set [22] has as its target Neuronal acetylcholine receptor; alpha4/beta2 (Homo sapiens, UniProt P17787+P43681). Nature of the data set: Binding affinity to nACh alpha4beta2 receptor (unknown origin) assessed as inhibition constant. It counts as protein-complex assay.
A further data set addresses Mu-type opioid receptor (Homo sapiens, UniProt P35372).
Data set [23] has as its target T8, Kappa-type opioid receptor (Homo sapiens, UniProt P41145). Description: Binding affinity to kappa opioid receptor (unknown origin) assessed as inhibition constant.
The target of data set [24] is T8, Kappa-type opioid receptor. Nature of the data set: Binding affinity to kappa opioid receptor (unknown origin).

T8 sequence (P41145 whole entry): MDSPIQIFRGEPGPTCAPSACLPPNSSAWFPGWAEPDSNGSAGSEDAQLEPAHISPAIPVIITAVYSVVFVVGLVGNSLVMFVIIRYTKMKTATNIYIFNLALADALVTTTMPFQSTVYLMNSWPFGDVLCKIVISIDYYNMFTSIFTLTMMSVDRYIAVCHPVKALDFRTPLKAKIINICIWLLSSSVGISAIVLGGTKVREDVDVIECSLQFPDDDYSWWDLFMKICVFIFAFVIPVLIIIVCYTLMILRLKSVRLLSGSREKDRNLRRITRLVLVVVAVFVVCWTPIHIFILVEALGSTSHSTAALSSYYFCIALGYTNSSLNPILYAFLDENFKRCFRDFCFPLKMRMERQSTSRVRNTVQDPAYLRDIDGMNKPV
Sequence of Neuronal acetylcholine receptor; alpha4/beta2 (P17787 whole entry): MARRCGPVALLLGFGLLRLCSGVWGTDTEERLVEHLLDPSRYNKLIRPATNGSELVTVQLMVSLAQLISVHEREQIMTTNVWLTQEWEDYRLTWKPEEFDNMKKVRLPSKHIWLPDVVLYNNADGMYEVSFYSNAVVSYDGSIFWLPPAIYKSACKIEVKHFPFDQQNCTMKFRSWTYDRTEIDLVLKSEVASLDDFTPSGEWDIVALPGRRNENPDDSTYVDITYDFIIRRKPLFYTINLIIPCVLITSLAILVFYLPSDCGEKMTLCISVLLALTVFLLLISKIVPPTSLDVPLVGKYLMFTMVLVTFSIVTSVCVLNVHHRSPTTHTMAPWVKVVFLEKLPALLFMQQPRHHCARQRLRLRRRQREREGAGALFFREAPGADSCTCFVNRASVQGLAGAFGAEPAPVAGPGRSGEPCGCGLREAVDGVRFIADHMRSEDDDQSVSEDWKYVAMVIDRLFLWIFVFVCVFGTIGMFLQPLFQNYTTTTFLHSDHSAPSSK
Sequence of Neuronal acetylcholine receptor; alpha4/beta2 (P43681 whole entry): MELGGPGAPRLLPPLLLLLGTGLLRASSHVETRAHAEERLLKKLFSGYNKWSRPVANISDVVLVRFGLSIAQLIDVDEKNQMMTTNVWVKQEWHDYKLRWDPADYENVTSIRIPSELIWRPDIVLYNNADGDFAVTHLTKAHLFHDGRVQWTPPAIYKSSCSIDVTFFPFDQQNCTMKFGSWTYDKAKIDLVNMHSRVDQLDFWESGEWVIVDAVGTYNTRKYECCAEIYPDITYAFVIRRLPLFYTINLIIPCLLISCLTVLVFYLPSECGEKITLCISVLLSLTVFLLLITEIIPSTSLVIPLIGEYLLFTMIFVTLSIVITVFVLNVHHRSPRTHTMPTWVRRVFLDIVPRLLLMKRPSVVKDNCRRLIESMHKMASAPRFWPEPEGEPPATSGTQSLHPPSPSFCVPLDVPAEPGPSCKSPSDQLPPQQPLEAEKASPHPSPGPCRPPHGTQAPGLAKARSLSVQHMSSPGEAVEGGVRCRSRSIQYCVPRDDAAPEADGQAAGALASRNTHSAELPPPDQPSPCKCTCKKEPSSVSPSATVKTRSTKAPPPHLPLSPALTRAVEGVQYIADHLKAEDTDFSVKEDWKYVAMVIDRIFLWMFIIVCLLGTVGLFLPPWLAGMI
Sequence of Mu-type opioid receptor (P35372 whole entry): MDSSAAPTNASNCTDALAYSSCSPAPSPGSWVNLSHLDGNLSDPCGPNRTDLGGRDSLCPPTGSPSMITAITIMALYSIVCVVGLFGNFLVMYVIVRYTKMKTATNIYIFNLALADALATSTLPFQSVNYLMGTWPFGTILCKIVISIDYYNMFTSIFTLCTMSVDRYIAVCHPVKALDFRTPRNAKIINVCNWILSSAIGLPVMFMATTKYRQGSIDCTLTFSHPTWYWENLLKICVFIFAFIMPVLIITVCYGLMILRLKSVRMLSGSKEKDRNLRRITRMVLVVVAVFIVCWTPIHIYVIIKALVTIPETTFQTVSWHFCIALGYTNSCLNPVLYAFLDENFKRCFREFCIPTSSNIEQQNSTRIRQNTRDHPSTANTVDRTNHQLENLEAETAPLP
Sequence of Neuronal acetylcholine receptor subunit alpha-7 (Rattus norvegicus, UniProt Q05941) (Q05941 whole entry): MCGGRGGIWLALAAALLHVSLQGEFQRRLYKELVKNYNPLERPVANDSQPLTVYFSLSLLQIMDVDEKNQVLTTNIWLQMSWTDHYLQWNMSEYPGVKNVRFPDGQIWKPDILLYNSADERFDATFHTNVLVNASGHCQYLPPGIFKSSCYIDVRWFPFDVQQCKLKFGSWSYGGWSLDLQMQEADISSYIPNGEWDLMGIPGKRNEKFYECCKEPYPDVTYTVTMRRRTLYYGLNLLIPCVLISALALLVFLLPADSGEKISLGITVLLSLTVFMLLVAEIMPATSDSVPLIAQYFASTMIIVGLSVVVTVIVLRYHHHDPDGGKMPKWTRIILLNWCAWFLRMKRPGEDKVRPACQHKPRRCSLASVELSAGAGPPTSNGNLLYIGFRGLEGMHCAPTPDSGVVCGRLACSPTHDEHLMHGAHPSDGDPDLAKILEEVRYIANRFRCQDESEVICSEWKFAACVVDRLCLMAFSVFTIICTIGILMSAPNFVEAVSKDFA
Sequence of Neuronal acetylcholine receptor subunit alpha-7 (Homo sapiens, UniProt P36544) (P36544 whole entry): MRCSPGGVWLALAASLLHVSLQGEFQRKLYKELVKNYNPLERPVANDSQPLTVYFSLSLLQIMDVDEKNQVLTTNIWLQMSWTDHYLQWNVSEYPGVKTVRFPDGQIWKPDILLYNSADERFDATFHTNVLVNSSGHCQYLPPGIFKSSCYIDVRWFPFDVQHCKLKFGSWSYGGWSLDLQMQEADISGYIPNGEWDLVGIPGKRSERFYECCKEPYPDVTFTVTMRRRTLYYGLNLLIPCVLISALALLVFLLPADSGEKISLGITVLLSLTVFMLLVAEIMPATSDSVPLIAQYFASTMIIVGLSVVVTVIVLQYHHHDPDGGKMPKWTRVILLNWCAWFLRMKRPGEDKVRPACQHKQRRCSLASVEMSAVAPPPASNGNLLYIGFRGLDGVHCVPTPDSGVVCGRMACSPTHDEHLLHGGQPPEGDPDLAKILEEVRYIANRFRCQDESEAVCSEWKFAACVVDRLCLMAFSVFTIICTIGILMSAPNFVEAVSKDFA

For orientation: pKa means the negative logarithm of the acid dissociation constant. A higher pKa goes with a weaker acid or stronger base. One may read the Ki as the dissociation constant of the complex between target and ligand, obtained from inhibition or displacement. Regarding `CCOC(=O)c1ncn2c1CN([11CH3])C(=O)c1cc(N=[N+]=[N-])ccc1-2`, the pKa in [1] was 8.45. The Ki in data set [2] was roughly 0.5 nM.
The logP is the decadic logarithm of the partition coefficient of the neutral form, usually between octanol and water. The low end stands for lower lipophilicity, the high end for higher lipophilicity. What is called logD is lipophilicity at a set pH, counting ionised and neutral species. Read a high logD as higher lipophilicity. As a reminder, the Kd is the equilibrium constant for the complex coming apart. The compound `[18F]c1ccc(OC[C@H]2CCN2)cn1` gave a logP in [3] of 0.66. Also, the logD in data set [4] is -2.02. Besides, the pKa in [1] came to 9.01. Moreover, in data set [5], the Kd is 0.028 nM. Also, in [6], the Bmax is 3.7 pmol/g.
`[11CH3]c1ccc(OC(=O)N2CCN3CCC2CC3)cc1` displayed a log partition coefficient (logP) in data set [3] of 1.95. In addition, the logD in data set [4] was 1.89. Moreover, the pKa in data set [1] was found to be 8.19. Also, the Ki worked out at 22 nM in data set [7] and 14 nM in [8]. Besides, in data set [9], the remaining at 1 h was greater than 80%.
On to `CCOC(=O)c1ncn2c1CN(C)C(=O)c1cc(N=[N+]=[N-])ccc1-2` [Ro-154513], for which the Ki in data set [10] was 7 nM; in [11], 7 nM; in [12] it was 7 nM; in data set [13] it was 0.7 nM.
Take `[11CH3]OCc1cccnc1N1CCN(C[C@H]2COc3ccccc3O2)CC1` [ORM-13070 C-11]: the logP in data set [3] was found to be 2.51. The same compound came in with a logD in data set [4] of 1.94. In data set [1], this compound came in with a pKa of 7.23. Besides, the figures for the Kd in [14], in data set [15] and in data set [16] were 109 nM, 3.8 nM and 23 nM, respectively.
On to `COC(=O)c1cncn1[C@H](C)c1ccc([18F])cc1`, for which, in data set [3], the logP is listed as 1.65. In data set [4], this compound gave a logD of 2.82. In addition, in data set [1], the pKa was determined as 4.08. In addition, the Drug uptake in data set [17] amounted to 66%; in data set [18] it was 39%. Further, the remaining at 10 min in [19] came to 13%. Also, the remaining at 0.5 h in data set [20] amounted to 8%. Further, the remaining at 1 h in data set [21] is 2%.
Take `[18F]c1ccc(-c2nnc(N3CCN4CCC3CC4)o2)cc1`: the lipophilicity (logP) in data set [3] was 2.34. The logD in data set [4] is -0.82. The same compound returned a pKa in data set [1] of 8.44. Further, the Ki in data set [22] is greater than 10000 nM.
Consider `N[11C](=O)c1ccc(Oc2ccc(CN3CCC[C@H]3c3cccnc3)cc2)c(Cl)c1`, for which the logP in data set [3] turned out to be 3.67. This compound showed a logD in [4] of 2.71. Moreover, the pKa in data set [1] was 8.45. For the same compound, the Ki at Mu-type opioid receptor came out at 25.8 nM; in [23], 0.72 nM. Moreover, binding in [24] was characterised by a dissociation constant (Kd) of 0.028 nM.
